From US6716829B2, “Aldosterone antagonist and cyclooxygenase-2 inhibitor combination therapy to prevent or treat inflammation-related cardiovascular disorders” (Pharmacia Corporation, priority 2000, dated 2004)
Where “and” joins values, the source holds several entries; their conditions need not be identical. Identical values can stand only once.

What was measured:
[1] = tested on: angiotensin II infused rats; experiment: Assay A: urinary electrolyte excretion (urinary Na+/K+ ratio as index for natriuresis); assay type: in vivo, Male Wistar rats; details: 1% NaCl, eplerenone 100 mpk
Excerpt: 24-hours food and fluid intake and urine output measured every day Urine samples collected every day for determination of urinary electrolytes. Electrolyte excretion. The ratio between daily urinary Na^+ excretion and urinary K^+ excretion (U Na^+/K^+ ratio) was used as an index for natriuresis. Urinary Na^+/K^+ ratio was similar in all groups before the start of the treatments, and increased similarly in all animals upon initiation of the high salt diet.

IL-6 = experiment: Assay B: IL-6 mRNA expression at 28 days; assay type: in vivo, Male Sprague Dawley rats; details: aldosterone infused rats, 28 days (FIG. 46)
Procedure: Assay B: In Vivo Aldosterone Infusion Model Male Sprague Dawley rats (n=39; BW=250 g) 2. Aldosterone (0.75 mg/hr, sc via alzet minipump) 2.

[2] = Assay C: body weight, left and right ventricle weight, tibia length (myocardial hypertrophy); assay type: in vivo, Male Sprague-Dawley rats
Procedure: The procedure of Assay B was expanded upon in a further study. […] Myocardial tissue from animals in each treatment group was examined after 7, 14, or 30 days of treatment.
Male Sprague-Dawley rats, weighing 230 to 250 g, (Harlan Sprague-Dawley Industries, Indianapolis, IN) were housed in a room 12-hours light/12-hours dark daily cycle at an ambient temperature of 22±1° C. (n=96). Animals were allowed one week to adjust after arrival and had free access to TEKLAD 22/5 rodent diet (Harlan TEKLAD, Madison, Wis.) and tap water until the initiation of the experiment.
Potassium chloride supplementation was added to the saline solution in order to prevent the potential hypokalemia associated with aldosterone excess.
At the time of the surgery, an Alzet 2002 osmotic minipump (Alza Corp., Palo Alto, Calif.) containing either vehicle (9% ethanol/87% propylene glycol/4% dH2O) or 1.0 mg/mL d-aldosterone (Sigma Chemical, St. Louis, Mo.) was inserted subcutaneously at the nape of the neck. Aldosterone was administered at a dose of 0.75 µg/hour. […] Animals were sacrificed from each group (n=8-13) after 7, 14, or 30 days of treatment.
Animals to be sacrificed after 7 or 14 days of treatment were uninephrectomized and implanted with an Alzet minipump. Animals treated for 30 days were uninephrectomized, fitted for Alzet minipumps, and implanted with radio telemetry units (model #TA11PA-C40, Data Sciences Inc., St. Paul, Minn.) according to the following procedure. Animals were anesthetized with 5% isoflurane (SOLVAY Animal Health Inc., Mendota Heights, Minn.), which was delivered in O2 using a VMS anesthesia instrument (Matrix Medical, Inc., Orchard Park, N.Y.). Anesthesia was maintained with 1-2% isoflurane throughout the surgical procedure. The surgery site was clipped, scrubbed with nolvasan, and sprayed with betadine. A rostral-caudal incision was made through the skin from the base of the rib cage to the pubic region using a #11 scalpel blade. A second incision was made through the muscles of the abdominal wall to expose the peritoneal cavity. The […], renal artery and vein of the left kidney were isolated, tied off with 4-0 silk, and the kidney excised and discarded. Organs were carefully displaced with tissue retractors in order to expose the abdominal aorta. A 1.5 cm segment just rostral to the bifurcation of the abdominal aorta into the iliac arteries was cleared of excessive connective tissue and 4-0 silk was used to make an anchor adjacent to the aorta. A microvascular clip was then placed at both ends of the cleaned region to stop excessive blood flow. Using a bent, 21 gauge needle, the abdominal aorta was penetrated. The cannula of the radio telemetry unit was inserted and stabilized in the aorta using the 4-0 silk anchor. Organs were repositioned and the telemetry unit was placed over the organs. Using a non-interrupted suture pattern with 4-0 silk, the abdominal wall was closed, and the skin was subsequently closed using a 4-0 silk in an interrupted suture pattern. Animals were injected around the sutures with 100 μL of the anesthetic Marcaine HCl (Sanofi Winthrop Pharmaceuticals, New York, N.Y.) and given an injection (i.m.) of the antibiotic Mandol (Eli Lilly & Co., Indianapolis, Ind.). Post-operative care included monitoring the animals on a heating pad during recovery from anesthesia until sternal recumbency was reestablished. Animals were monitored daily for signs of distress and infection at the surgical site. Animals displaying continued discomfort after surgery were treated with 0.1-0.5 mg/kg, s.c. Buphrenorphine (Rickett & Colman Pharmaceuticals, Inc. Richmond, Va.). Animals were then placed on tap water and TEKLAD 22/5 rodent diet (Harlan TEKLAD, Madison, Wis.).

[3] = tested on: angiotensin II infused rats; experiment: Assay A, angiotensin II infusion model: systolic blood pressure by tail-cuff; assay type: in vivo, Male Wistar rats; details: angiotensin II 25 ng/min sc, 1% NaCl; eplerenone 100 mpk; aldosterone in adrenalectomized rats; 4 weeks
Procedure: Human cardiovascular disorders are complex conditions, often initiated by vascular hypertension or a myocardial infarction (MI). In order to determine the probable effectiveness of a therapy for cardiovascular disorders, it is important to determine the potency of components in several assays. Accordingly, in Assay “A”, the efficacy of the aldosterone antagonist epeplerenone (epoxymexrenone) was determined in a hypertensive rat model with vascular inflammation, using angiotensin II infusion. In Assay “B” a study is described evaluating the efficacy of the aldosterone antagonist epeplerenone (epoxymexrenone) in a rat model using aldosterone infusion to produce hypertension with vascular inflammation. In Assay “C” a further study is described evaluating the efficacy of the aldosterone antagonist epeplerenone (epoxymexrenone) in a rat model using aldosterone infusion to produce hypertension with vascular inflammation.
Assay A: In Vivo Angiotensin II Infusion Model
Male Wistar rats (n=50, 10/group; BW=200 g)
SBP measured by tail-cuff every week

[4] = 14-day protocol, individual rats and group Mean, listed as Eplerenone + aldosterone + salt
[5] = 14-day protocol, individual rats and group Mean, listed as Eplerenone + aldosterone + salt, mean
[6] = individual rats and group mean, 7 days of treatment, aldosterone + salt, eplerenone 100 mg/kg/day
[7] = individual rats and group mean, 7 days of treatment, aldosterone + salt, eplerenone 100 mg/kg/day, group mean
[8] = mean ± SEM after 7 days of treatment, aldosterone + salt, eplerenone 100 mg/kg/day
[9] = mean ± SEM after 14 days of treatment, aldosterone + salt, eplerenone 100 mg/kg/day
[10] = mean ± SEM after 30 days of treatment, eplerenone dose 100 mg/kg/day

Compound: COC(=O)[C@@H]1CC2=CC(=O)CC[C@]2(C)[C@@]23O[C@@H]2C[C@@]2(C)[C@@H](CC[C@@]24CCC(=O)O4)[C@H]13 [Eplerenone]
- Urinary Na+/K+ ratio (diuretic or natriuretic effect) [1]: did not produce a significant diuretic or natriuretic effect
- IL-6 expression (IL-6): attenuated
- Left Ventricle Weight [2, 4]: 804 mg and 898 mg and 789 mg and 851 mg and 668 mg and 833 mg and 886 mg and 756 mg and 751 mg and 795 mg and 915 mg
- Left Ventricle Weight/ Tibia Length [2, 4]: 212 mg/cm and 236 mg/cm and 221 mg/cm and 176 mg/cm and 225 mg/cm and 233 mg/cm and 199 mg/cm and 198 mg/cm and 215 mg/cm and 235 mg/cm
- Right Ventricle Weight [2, 4]: 182 mg and 188 mg (2×) and 176 mg and 189 mg and 139 mg and 371 mg and 193 mg and 158 mg and 155 mg and 225 mg
- Right Ventricle Weight/ Tibia Length [2, 4]: 48 mg/cm and 49 mg/cm (3×) and 46 mg/cm and 37 mg/cm and 100 mg/cm and 51 mg/cm and 42 mg/cm (2×) and 58 mg/cm
- Left Ventricle Weight [2, 5]: 813 mg
- Left Ventricle Weight/ Tibia Length [2, 5]: 214 mg/cm
- Right Ventricle Weight [2, 5]: 197 mg
- Right Ventricle Weight/ Tibia Length [2, 5]: 52 mg/cm
- Body weight ([2]; aldosterone + salt at days 7, 14 and 30 vs vehicle + salt, eplerenone effect at day 30): significantly attenuated
- Ventricular hypertrophy (absolute ventricular weights, ventricular weight to tibia length ratios) ([2]; aldosterone + salt, 7 to 30 days, eplerenone 100 mg/kg/day): did not impact
- Left Ventricle Weight [2, 6]: 859 mg and 712 mg and 618 mg and 658 mg and 754 mg and 733 mg and 726 mg and 696 mg and 700 mg and 688 mg
- Left Ventricle Weight/ Tibia Length [2, 6]: 220 mg/cm and 187 mg/cm and 167 mg/cm and 173 mg/cm and 198 mg/cm and 193 mg/cm and 191 mg/cm and 183 mg/cm and 184 mg/cm and 181 mg/cm
- Right Ventricle Weight [2, 6]: 216 mg and 181 mg (2×) and 154 mg and 174 mg and 192 mg and 171 mg and 190 mg and 170 mg and 187 mg
- Right Ventricle Weight/ Tibia Length [2, 6]: 55 mg/cm and 48 mg/cm (2×) and 42 mg/cm and 46 mg/cm and 51 mg/cm and 45 mg/cm (2×) and 50 mg/cm and 49 mg/cm
- Left Ventricle Weight [2, 7]: 714 mg
- Left Ventricle Weight/ Tibia Length [2, 7]: 188 mg/cm
- Right Ventricle Weight [2, 7]: 182 mg
- Right Ventricle Weight/ Tibia Length [2, 7]: 48 mg/cm
- Final Body Weight [2, 8]: 287 ± 4 g
- Left Ventricle Weight [2, 8]: 714 ± 20 mg
- Left Ventricle Weight/ Tibia Length [2, 8]: 188 ± 5 mg/cm
- Right Ventricle Weight [2, 8]: 182 ± 5 mg
- Right Ventricle Weight/ Tibia Length [2, 8]: 48 ± 1 mg/cm
- Final Body Weight [2, 9]: 283 ± 6 g
- Left Ventricle Weight [2, 9]: 813 ± 22 mg
- Left Ventricle Weight/ Tibia Length [2, 9]: 214 ± 6 mg/cm
- Right Ventricle Weight [2, 9]: 197 ± 19 mg
- Right Ventricle Weight/ Tibia Length [2, 9]: 52 ± 5 mg/cm
- Final Body Weight (g) [2, 10]: 331 ± 7^# g
- Left Ventricle Weight [2, 10]: 936 ± 34 mg
- Left Ventricle Weight/ Tibia Length [2, 10]: 240 ± 9 mg/cm
- Right Ventricle Weight [2, 10]: 198 ± 6 mg
- Right Ventricle Weight/ Tibia Length [2, 10]: 51 ± 2 mg/cm
- Systolic Blood Pressure [3]: Neither eplerenone nor adrenalectomy reduced blood pressure
